Results from patent publication US8835466B2, “Synthesis and uses of pyroglutamic acid derivatives” (Prodimed, S.A., priority 2006, dated 2014).

System: Ehrlich tumour cells (murine mammary adenocarcinoma)
Test: Effect of isomers and BLAS on in vivo tumour growth, Ehrlich tumours (Example 9)
Parameters: species or system Balb/c mice
Conditions: for Tumour surface, overall values (Mean) / Tumour surface, overall values (Median) / Tumour volume, overall values (Mean) / Tumour volume, overall values (Median): 260 ng/mouse i.p. days 6, 7 and 14
Description: This assay was made in order to compare the effect of each stereoisomer on in vivo tumour growth in mice with the effect of the mixture of all of them challenged with Ehlrich tumours. The same products, equipment, reagents, doses, vehicle and route of administration as in example 8 were used.
Mice were inoculated with Ehrlich tumour cells. It was described as a murine mammary adenocarcinoma. Ehrlich tumour is a murine mammary carcinoma originally raised in an outbred mouse, and therefore it belongs to the so-called non-specific tumours (Subiza J L, Viñuela J E, Rodriguez R, Gil J, Figueredo M A, de la Concha. E G. Development of splenic natural suppressor (NS) cells in Ehrlich tumor bearing mice. Int J Cancer, 44:307 315; 1989). It may grow across histocompatibility barriers and therefore is not mouse strain specific (Carry P J, Prescott D M, Ogilvie G K. Resistance to Ehrlich ascites tumor in a strain of dystrophic mice. Cancer Res., 39:2139-2140; 1979).
Ehrlich cells were maintained in vitro by serial passages every 3-4 days. Cultures were performed with RPMI medium medium (RPMI, 10% foetal calf serum, 2 mM L-glutamine, non essential aminoacids, 1 mM sodium pyruvate, 20 mM HEPES, 80 μg/mL gentamycin; all of them were purchased from Sigma, St. Louis, Mo., USA) by seeding 5×10^6 cells onto 75 cm^2 culture flasks. Tumour cells collected from 48 hour cultures were used as source of cells for the studies described below.
Tumours were established by subcutaneous inoculation in the right hind flank. Mice (Balb/c) were inoculated with 0.2 mL containing 2×10^5 viable Ehrlich cells. The day of subcutaneous inoculation will be considered Day 0 of the test.
Mice were observed daily and the tumour size recorded twice a week. This was carried out by measuring two perpendicular diameters (L/W) with a calliper. These measures were used to obtain both tumour surface and volume: Tumour surface=L×W(mm^2) Tumour volume=L×W^2×½(mm^3)
Results were expressed as single values and/or as the mean±SD or median from each experimental group.
A case-control study was performed with treated and control mice in order to determine whether differences between BLAS or each diferent stereoisomer and administration of placebo were present. […] The U-test of Mann Withney was chosen for being one of the better known non-parametrical tests, anyway, results for this test are equivalent both to those of Wilcoxon's sum of ranges and Kruskal-Wallis two-groups test.

[1] = day 13 after tumour inoculation
[2] = day 16 after tumour inoculation
[3] = day 20 after tumour inoculation
[4] = day 23 after tumour inoculation
[5] = day 29 after tumour inoculation
[6] = day 31 after tumour inoculation
[7] = day 35 after tumour inoculation
[8] = day 38 after tumour inoculation

## Br.N[C@]1(C[n+]2ccccc2)C[C@@H](C(=O)O)NC1=O.[Br-] (single isomer, unassigned; isomer 3) [isomer 3, 3S,5S-1-(3-Amino-5-carboxy-2-oxopyrrolidin-3-ylmethyl)pyridinium bromide hidrobromide]
260 ng i.p. days 6, 7 and 14
  Inhibition of the in vivo growth of Ehrlich tumour cells, in words: inhibit the in vivo growth
  Inhibitory effect on Ehrlich tumour growth compared among treatments, in words: highest inhibitory effect
Day 0 after tumour inoculation
  Tumour surface, overall values (Mean): 0 mm^2
  Tumour surface, overall values (Median): 0 mm^2
  Tumour volume, overall values (Mean): 0 mm^3
  Tumour volume, overall values (Median): 0 mm^3
Day 8 after tumour inoculation
  Tumour surface, overall values (Mean): 3.62 mm^2
  Tumour surface, overall values (Median): 0 mm^2
  Tumour volume, overall values (Mean): 6 mm^3
  Tumour volume, overall values (Median): 0 mm^3
[1]
  Tumour surface, overall values (Mean): 10.94 mm^2
  Tumour surface, overall values (Median): 9 mm^2
  Tumour volume, overall values (Mean): 23.53 mm^3
  Tumour volume, overall values (Median): 13.5 mm^3
[2]
  Tumour surface, overall values (Mean): 16.5 mm^2
  Tumour surface, overall values (Median): 16 mm^2
  Tumour volume, overall values (Mean): 37.12 mm^3
  Tumour volume, overall values (Median): 32 mm^3
[3]
  Tumour surface, overall values (Mean): 24.12 mm^2
  Tumour surface, overall values (Median): 20 mm^2
  Tumour volume, overall values (Mean): 65.12 mm^3
  Tumour volume, overall values (Median): 40 mm^3
[4]
  Tumour surface, overall values (Mean): 32.25 mm^2
  Tumour surface, overall values (Median): 25 mm^2
  Tumour volume, overall values (Mean): 100.44 mm^3
  Tumour volume, overall values (Median): 62.5 mm^3
[5]
  Tumour surface, overall values (Mean): 42.94 mm^2
  Tumour surface, overall values (Median): 27.5 mm^2
  Tumour volume, overall values (Mean): 156.34 mm^3
  Tumour volume, overall values (Median): 68.75 mm^3
[6]
  Tumour surface, overall values (Mean): 53.37 mm^2
  Tumour surface, overall values (Median): 36 mm^2
  Tumour volume, overall values (Mean): 213.31 mm^3
  Tumour volume, overall values (Median): 100.5 mm^3
[7]
  Tumour surface, overall values (Mean): 66 mm^2
  Tumour surface, overall values (Median): 43 mm^2
  Tumour volume, overall values (Mean): 293.87 mm^3
  Tumour volume, overall values (Median): 135.5 mm^3
[8]
  Tumour surface, overall values (Mean): 79.37 mm^2
  Tumour surface, overall values (Median): 49.5 mm^2
  Tumour volume, overall values (Mean): 387.69 mm^3
  Tumour volume, overall values (Median): 164.25 mm^3
Either in surface or volume, all days scored after the day 8th
  Differences in Ehrlich tumour growth rate vs. placebo, statistical significance p (Mann-Whitney U test): < 0.05
Either in surface or volume, days 13th, 16th, 20th and 23th
  Differences in Ehrlich tumour growth rate BLAS vs. isomer 3, statistical significance p (Mann-Whitney U test): < 0.05

## Br.N[C@@]1(C[n+]2ccccc2)C[C@@H](C(=O)O)NC1=O.[Br-] (single isomer, unassigned; isomer 1) [isomer 1, 3R,5S-1-(3-Amino-5-carboxy-2-oxopyrrolidin-3-ylmethyl)pyridinium bromide hidrobromide]
260 ng i.p. days 6, 7 and 14
  Inhibition of the in vivo growth of Ehrlich tumour cells, in words: inhibit the in vivo growth
Day 0 after tumour inoculation
  Tumour surface, overall values (Mean): 0 mm^2
  Tumour surface, overall values (Median): 0 mm^2
  Tumour volume, overall values (Mean): 0 mm^3
  Tumour volume, overall values (Median): 0 mm^3
Day 8 after tumour inoculation
  Tumour surface, overall values (Mean): 5.69 mm^2
  Tumour surface, overall values (Median): 2 mm^2
  Tumour volume, overall values (Mean): 9.91 mm^3
  Tumour volume, overall values (Median): 2 mm^3
[1]
  Tumour surface, overall values (Mean): 13.69 mm^2
  Tumour surface, overall values (Median): 16 mm^2
  Tumour volume, overall values (Mean): 31.34 mm^3
  Tumour volume, overall values (Median): 32 mm^3
[2]
  Tumour surface, overall values (Mean): 20.875 mm^2
  Tumour surface, overall values (Median): 20.5 mm^2
  Tumour volume, overall values (Mean): 53.12 mm^3
  Tumour volume, overall values (Median): 47.25 mm^3
[3]
  Tumour surface, overall values (Mean): 32.37 mm^2
  Tumour surface, overall values (Median): 27.5 mm^2
  Tumour volume, overall values (Mean): 105.19 mm^3
  Tumour volume, overall values (Median): 68.75 mm^3
[4]
  Tumour surface, overall values (Mean): 42.12 mm^2
  Tumour surface, overall values (Median): 39.5 mm^2
  Tumour volume, overall values (Mean): 160.5 mm^3
  Tumour volume, overall values (Median): 123.25 mm^3
[5]
  Tumour surface, overall values (Mean): 50 mm^2
  Tumour surface, overall values (Median): 39.5 mm^2
  Tumour volume, overall values (Mean): 202.19 mm^3
  Tumour volume, overall values (Median): 123.25 mm^3
[6]
  Tumour surface, overall values (Mean): 57 mm^2
  Tumour surface, overall values (Median): 46.5 mm^2
  Tumour volume, overall values (Mean): 249.06 mm^3
  Tumour volume, overall values (Median): 147.75 mm^3
[7]
  Tumour surface, overall values (Mean): 68.87 mm^2
  Tumour surface, overall values (Median): 52.5 mm^2
  Tumour volume, overall values (Mean): 342.94 mm^3
  Tumour volume, overall values (Median): 173.25 mm^3
[8]
  Tumour surface, overall values (Mean): 78.81 mm^2
  Tumour surface, overall values (Median): 53 mm^2
  Tumour volume, overall values (Mean): 425.91 mm^3
  Tumour volume, overall values (Median): 191 mm^3
Either in surface or volume, all days scored after the day 13th
  Differences in Ehrlich tumour growth rate vs. placebo, statistical significance p (Mann-Whitney U test): < 0.05
